From US11253554B2, “Bacterial profile to detect fungal taxa abundance in the gut” (Virginia Commonwealth University, priority 2016, dated 2022)

What was measured:
[1] = all subjects, 40 mg daily for 14 days, as reported in prior trial; cited from earlier work
[2] = system: bacterial taxa (stool microbiota); assay: Pre-PPI/post-PPI longitudinal study, stool 16S rRNA bacterial community analysis; format: in vivo, human; conditions: after 14 days of 40 mg omeprazole daily
Experimental: (§1) The impact of PPI on fungal parameters were analyzed from a prior trial in which 40 mg of omeprazole was administered daily for 14 days in compensated outpatients with cirrhosis and healthy controls, (Bajaj J S, et al. Am J Physiol Gastrointest Liver Physiol 2014 307:G951-G957).
(§2) For all these studies, Shannon diversity indices for both bacterial and fungal taxa as well as LEFSe comparisons (Segata N, et al. Genome Biol 2011 12:R60) at baseline and the end of study were performed and compared.
(§3) Microbial DNA were isolated from stool samples as previously described (Gillevet P, et al. Chem Biodivers 2010 7:1065-75). […] Amplicons for 96 samples were then sequenced together to generate >20,000×400 base reads per sample.
The Microbiome Analysis Center's Portal was used to organize raw data, track clinical metadata, and track analysis between the groups at baseline and/if they develop infections and are resampled. […] The taxonomic identity of reference sequences were determined using the RDP11 Classifier (Wang Q et al. Appl Environ Microbiol 2007 73:5261-7) and QIIME Pipeline. […] Changes in abundance of individual bacterial and fungal taxa were also analyzed using traditional univariate statistical methods. […]

[3] = Pre-PPI/post-PPI longitudinal study, clinical course; format: in vivo, human; conditions: patients with cirrhosis; before 8.1±2.7, p=0.41
Experimental: The impact of PPI on fungal parameters were analyzed from a prior trial in which 40 mg of omeprazole was administered daily for 14 days in compensated outpatients with cirrhosis and healthy controls, (Bajaj J S, et al. Am J Physiol Gastrointest Liver Physiol 2014 307:[…]-[…]).

[4] = system: fungal taxa (stool mycobiome); assay: Pre-PPI/post-PPI longitudinal study, stool ITS1 fungal community analysis; format: in vivo, human; conditions: after 14 days of 40 mg omeprazole daily
Experimental: as §1, §2
Similarly, the ITS1 regions of the fungal 18S ribosomal RNA (rRNA) gene were sequenced on a PGM Ion Torrent Next-generation sequencer using Multitag fusion primers (ITS1F: 5′-[…]-3′ (SEQ ID NO:3); ITS2: 5′-[…]-3′ (SEQ ID NO:4)). Amplicons for 96 samples were sequenced together to generate >10,000×400 base reads per sample. The mycobiome is generally less diverse than the microbiome and thus required fewer reads to interrogate this community (Ghannoum M A, et al. PLoS pathogens 2010 6:e1000713). Greater than 1000 reads for bacteria and greater than 100 reads for fungi were used given the relatively lower abundance of fungal taxa as the lowest number chosen to be acceptable. […] A cutoff of 100 reads per sample was used as that was clearly above the negative control and is the break point in FIG. 6. […]

[5] = system: fungal taxa (stool mycobiome); assay: Cross-sectional study of outpatients with cirrhosis, fungal Shannon diversity; format: in vivo, human; conditions: outpatients with cirrhosis on rifaximin without SBP prophylaxis; vs SBPP 0.83±0.60
Experimental: (§4) Healthy controls that were age-matched were enrolled with two sets of patients with cirrhosis, outpatients and inpatients. Healthy controls were outpatients without any chronic diseases or medications. Patients with cirrhosis were included who were diagnosed using liver biopsy, evidence of frank decompensation or radiological features of cirrhosis who were between 21 and 75 years. Patients who were unable to give consent or provide stool within 48 hours of admission, with alcohol misuse, alcoholic hepatitis, on antifungal medications and with gastrointestinal bleeding episodes within 6 weeks were excluded. Also excluded were those undergoing HCV eradication or those on probiotics within the last 3 months. […]
Similarly, the ITS1 regions of the fungal 18S ribosomal RNA (rRNA) gene were sequenced on a PGM Ion Torrent Next-generation sequencer using Multitag fusion primers (ITS1F: 5′-[…]-3′ (SEQ ID NO:3); ITS2: 5′-[…]-3′ (SEQ ID NO:4)). Amplicons for 96 samples were sequenced together to generate >10,000×400 base reads per sample. The mycobiome is generally less diverse than the microbiome and thus required fewer reads to interrogate this community (Ghannoum M A, et al. PLoS pathogens 2010 6:e1000713). Greater than 1000 reads for bacteria and greater than 100 reads for fungi were used given the relatively lower abundance of fungal taxa as the lowest number chosen to be acceptable. […]

[6] = system: bacterial taxa (stool microbiota); assay: Cross-sectional study of outpatients with cirrhosis, bacterial Shannon diversity; format: in vivo, human; conditions: outpatients with cirrhosis on rifaximin without SBP prophylaxis; vs SBPP 1.3±0.5
Experimental: as §4, §3
The Microbiome Analysis Center's Portal was used to organize raw data, track clinical metadata, and track analysis between the groups at baseline and/if they develop infections and are resampled. […] The taxonomic identity of reference sequences were determined using the RDP11 Classifier (Wang Q et al. Appl Environ Microbiol 2007 73:5261-7) and QIIME Pipeline. […]

Structure (SMILES)	tolerability [1]	bacterial diversity (Shannon index) post ([2]; healthy controls, pre 1.88±0.16, p=0.004)	bacterial diversity (Shannon index) post ([2]; patients with cirrhosis, pre 1.89±0.25, p=0.05)	MELD score after therapy [3]	fungal diversity (Shannon index) post ([4]; healthy controls, pre 1.92±0.48, p=0.46)	fungal diversity (Shannon index) post ([4]; patients with cirrhosis, pre 1.64±0.34, p=0.39)	fungal diversity (Shannon index) [5]	bacterial diversity (Shannon index) [6]
COc1ccc2[nH]c([S+]([O-])Cc3ncc(C)c(OC)c3C)nc2c1 (centres unmarked) [omeprazole]	able to tolerate	1.63±0.22	1.54±0.34	7.9±3.5	1.73±0.61	1.45±0.38	–	–
CO[C@H]1/C=C/O[C@@]2(C)Oc3c(C)c(O)c4c(O)c(c5c(nc6cc(C)ccn65)c4c3C2=O)NC(=O)/C(C)=C\C=C\[C@H](C)[C@H](O)[C@@H](C)[C@@H](O)[C@@H](C)[C@H](OC(C)=O)[C@@H]1C [rifaximin]	–	–	–	–	–	–	0.77±0.77	1.32±0.51
